Key:
SK-MEL-5 = test: Cancer cell growth inhibition, SK-MEL-5; format: cell-based, human; conditions: SK-MEL-5, Melanoma, 72 h treatment
Protocol: (§1) Cell culture-based assays were used to evaluate the ability of compounds of the invention to inhibit cancer cell growth inhibition.
(§2) Cells were obtained from the American Type Culture Collection (ATCC). Cells were cultured at 37° C. with 5% CO2 in the appropriate growth medium (see table below), and harvested respectively during the logarithmic growth period and counted with hemocytometer. The cell viability was over 98% by trypan blue exclusion. Cell concentrations were adjusted between 5×10^4 and 2×10^5 cells/ml with respective medium.
(§3) Stock solutions of test compounds and positive drugs Doxorubicin (Zhejiang, Haizheng, China), Paclitaxel (Beijing, Xiehe, China), Vincristin (Shenzhen Wanle, China), 5-FU (Tianjin jinyaoanjisuan, China), Irinotecan (Jiangsu Hengrui, China) and Cisplatin Nanjing zhiyao, China) were prepared in dimethyl sulphoxide (DMSO) or PBS at 20 mM.
(§4) All treatments were performed in triplicate. 10 μl drug solution was added to each well and incubated for 72 hours. At the end of the incubation, 20 μl of the freshly prepared MTS/PMS mixture solution was added to each well and incubated for 4 hours at 37° C. in a humidified, 5% CO2 atmosphere. Absorbance was read at 490 nm using SpectraMAX Plus microplate spectrophotometer. […] In order to calculate IC50, a dose-responsive curve was fitted using nonlinear regression model with a sigmoidal dose response.

SW620 = test: Cancer cell growth inhibition, SW620; format: cell-based, human; conditions: SW620, Colorectal Cancer, 72 h treatment
Protocol: as §1, §2, §3, §4

NCI-N87 = test: Cancer cell growth inhibition, NCI-N87; format: cell-based, human; conditions: NCI-N87, Gastric Cancer, 72 h treatment
Protocol: as §1, §2, §3, §4

HT-29 = test: Cancer cell growth inhibition, HT-29; format: cell-based, human; conditions: HT-29, Colorectal Cancer, 72 h treatment
Protocol: as §1, §2, §3, §4

DU145 = test: Cancer cell growth inhibition, DU145; format: cell-based, human; conditions: DU145, Prostate Cancer, 72 h treatment
Protocol: as §1, §2, §3, §4

SK-BR-3 = test: Cancer cell growth inhibition, SK-BR-3; format: cell-based, human; conditions: SK-BR-3, Breast Cancer, 72 h treatment
Protocol: as §1, §2, §3, §4

NCI-H226 = test: Cancer cell growth inhibition, NCI-H226; format: cell-based, human; conditions: NCI-H226, Lung Cancer, 72 h treatment
Protocol: as §1, §2, §3, §4

PC-3 = test: Cancer cell growth inhibition, PC-3; format: cell-based, human; conditions: PC-3, Prostate Cancer, 72 h treatment
Protocol: as §1, §2, §3, §4

K562 = test: Cancer cell growth inhibition, K562; format: cell-based, human; conditions: K562, CML, 72 h treatment
Protocol: as §1
Cells were obtained from the American Type Culture Collection (ATCC). Cells were cultured at 37° C. with 5% CO2 in the appropriate growth medium (see table below), and harvested respectively during the logarithmic growth period and counted with hemocytometer. […] Cell concentrations were adjusted between 5×10^4 and 2×10^5 cells/ml with respective medium.
as §3, §4

MDA-MB-231 = test: Cancer cell growth inhibition, MDA-MB-231; format: cell-based, human; conditions: MDA-MB-231, Breast Cancer, 72 h treatment
Protocol: as §1, §2, §3, §4

NCI-H460 = test: Cancer cell growth inhibition, NCI-H460; format: cell-based, human; conditions: NCI-H460, Lung Cancer, 72 h treatment
Protocol: as §1, §2, §3, §4

A375 = test: Cancer cell growth inhibition, A375; format: cell-based, human; conditions: A375, Melanoma, 72 h treatment
Protocol: as §1, §2, §3, §4

Bx-PC-3 = test: Cancer cell growth inhibition, Bx-PC-3; format: cell-based, human; conditions: Bx-PC-3, Pancreatic Cancer, 72 h treatment
Protocol: as §1, §2, §3, §4

SK-MES-1 = test: Cancer cell growth inhibition, SK-MES-1; format: cell-based, human; conditions: SK-MES-1, Lung Cancer, 72 h treatment
Protocol: as §1, §2, §3, §4

LNCaP = test: Cancer cell growth inhibition, LNCaP; format: cell-based, human; conditions: Prostate Cancer, 72 h treatment
Protocol: as §1, §2, §3, §4

SK-OV-3 = test: Cancer cell growth inhibition, SK-OV-3; format: cell-based, human; conditions: SK-OV-3, Ovarian Cancer, 72 h treatment
Protocol: as §1, §2, §3, §4

Hep3B = test: Cancer cell growth inhibition, Hep3B; format: cell-based, human; conditions: Liver Cancer, 72 h treatment
Protocol: as §1, §2, §3, §4

DLD-1 = test: Cancer cell growth inhibition, DLD-1; format: cell-based, human; conditions: DLD-1, Colorectal Cancer, 72 h treatment
Protocol: as §1, §2, §3, §4

CNE2 = test: Cancer cell growth inhibition, CNE2; format: cell-based, human; conditions: CNE2, Nasopharyngeal Cancer, 72 h treatment
Protocol: as §1, §2, §3, §4

SW480 = test: Cancer cell growth inhibition, SW480; format: cell-based, human; conditions: SW480, Colorectal Cancer, 72 h treatment
Protocol: as §1, §2, §3, §4

RPMI-8226 = test: Cancer cell growth inhibition, RPMI-8226; format: cell-based, human; conditions: RPMI-8226, Orthotopic Multiple Myeloma, 72 h treatment
Protocol: as §1, §2, §3, §4

BGC823 = test: Cancer cell growth inhibition, BGC823; format: cell-based, human; conditions: BGC823, Gastric Cancer, 72 h treatment
Protocol: as §1, §2, §3, §4

KB = test: Cancer cell growth inhibition, KB; format: cell-based, human; conditions: Oral Cancer, 72 h treatment
Protocol: as §1, §2, §3, §4

PANC-1 = test: Cancer cell growth inhibition, PANC-1; format: cell-based, human; conditions: PANC-1, Pancreatic Cancer, 72 h treatment
Protocol: as §1, §2, §3, §4

Calu-6 = test: Cancer cell growth inhibition, Calu-6; format: cell-based, human; conditions: Calu-6, Lung Cancer, 72 h treatment
Protocol: as §1, §2, §3, §4

OVCAR3 = test: Cancer cell growth inhibition, OVCAR3; format: cell-based, human; conditions: OVCAR3, Ovarian Cancer, 72 h treatment
Protocol: as §1, §2, §3, §4

A549 = test: Cancer cell growth inhibition, A549; format: cell-based, human; conditions: A549, Lung Cancer, 72 h treatment
Protocol: as §1, §2, §3, §4

786-O = test: Cancer cell growth inhibition, 786-O; format: cell-based, human; conditions: Kindney Cancer, 72 h treatment
Protocol: as §1, §2, §3, §4

MCG803 = test: Cancer cell growth inhibition, MCG803; format: cell-based, human; conditions: MCG803, Gastric Cancer, 72 h treatment
Protocol: as §1, §2, §3, §4

LoVo = test: Cancer cell growth inhibition, LoVo; format: cell-based, human; conditions: Colorectal Cancer, 72 h treatment
Protocol: as §1, §2, §3, §4

U87MG = test: Cancer cell growth inhibition, U87MG; format: cell-based, human; conditions: Glioblastoma, 72 h treatment
Protocol: as §1, §2, §3, §4

MCF-7 = test: Cancer cell growth inhibition, MCF-7; format: cell-based, human; conditions: MCF-7, Breast Cancer, 72 h treatment
Protocol: as §1, §2, §3, §4

Human HDAC11 = Human HDAC11 (Homo sapiens (Human), UniProt Q96DB2); test: HDAC11 fluorogenic peptide deacetylation assay; format: biochemical; conditions: human HDAC11, 50 μM substrate, 30° C., 2 h; read-out: IC50 (nM) of enzyme activity HDAC11
Human HDAC6 = Human HDAC6 (Homo sapiens (Human), UniProt Q9UBN7); test: HDAC6 fluorogenic peptide deacetylation assay; format: biochemical; conditions: human HDAC6, 50 μM substrate, 30° C., 2 h; read-out: IC50 (nM) of enzyme activity HDAC6
Human HDAC10 = Human HDAC10 (Homo sapiens (Human), UniProt Q969S8); test: HDAC10 fluorogenic peptide deacetylation assay; format: biochemical; conditions: human HDAC10, 50 μM substrate, 30° C., 2 h; read-out: IC50 (nM) of enzyme activity HDAC10
Human HDAC8 = Human HDAC8 (Homo sapiens (Human), UniProt Q9BY41); test: HDAC8 fluorogenic peptide deacetylation assay; format: biochemical; conditions: human HDAC8, 50 μM substrate, 30° C., 2 h; read-out: IC50 (nM) of enzyme activity HDAC8
Human HDAC5 = Human HDAC5 (Homo sapiens (Human), UniProt Q9UQL6); test: HDAC5 fluorogenic peptide deacetylation assay; format: biochemical; conditions: human HDAC5, 50 μM substrate, 30° C., 2 h; read-out: IC50 (nM) of enzyme activity HDAC5
Human HDAC9 = Human HDAC9 (Homo sapiens (Human), UniProt Q9UKV0); test: HDAC9 fluorogenic peptide deacetylation assay; format: biochemical; conditions: human HDAC9, 50 μM substrate, 30° C., 2 h; read-out: IC50 (nM) of enzyme activity HDAC9
[1] = system: Nuclear Extract from HeLa Cells; test: HeLa Nuclear Extract HDAC assay; format: biochemical, human; conditions: 50 μM substrate, 30° C., 2 h, read-out: IC50 (nM) of enzyme activity HeLa
Human HDAC3/NcoR2 = Human HDAC3/NcoR2 (Homo sapiens (Human), UniProt O15379); test: HDAC3 fluorogenic peptide deacetylation assay; format: biochemical; conditions: human HDAC3/NcoR2, 50 μM substrate, 30° C., 2 h; read-out: IC50 (nM) of enzyme activity HDAC3
Human HDAC1 = Human HDAC1 (Homo sapiens (Human), UniProt Q13547); test: HDAC1 fluorogenic peptide deacetylation assay; format: biochemical; conditions: human HDAC1, 50 μM substrate, 30° C., 2 h; read-out: IC50 (nM) of enzyme activity HDAC1
Human HDAC4 = Human HDAC4 (Homo sapiens (Human), UniProt P56524); test: HDAC4 fluorogenic peptide deacetylation assay; format: biochemical; conditions: human HDAC4, 50 μM substrate, 30° C., 2 h; read-out: IC50 (nM) of enzyme activity HDAC4
Human HDAC2 = Human HDAC2 (Homo sapiens (Human), UniProt Q92769); test: HDAC2 fluorogenic peptide deacetylation assay; format: biochemical; conditions: human HDAC2, 50 μM substrate, 30° C., 2 h; read-out: IC50 (nM) of enzyme activity HDAC2
Human HDAC7 = Human HDAC7 (Homo sapiens (Human), UniProt Q8WUI4); test: HDAC7 fluorogenic peptide deacetylation assay; format: biochemical; conditions: human HDAC7, 50 μM substrate, 30° C., 2 h; read-out: IC50 (nM) of enzyme activity HDAC7
Chain of Human HDAC7 (Q8WUI4 479-952 limits assumed): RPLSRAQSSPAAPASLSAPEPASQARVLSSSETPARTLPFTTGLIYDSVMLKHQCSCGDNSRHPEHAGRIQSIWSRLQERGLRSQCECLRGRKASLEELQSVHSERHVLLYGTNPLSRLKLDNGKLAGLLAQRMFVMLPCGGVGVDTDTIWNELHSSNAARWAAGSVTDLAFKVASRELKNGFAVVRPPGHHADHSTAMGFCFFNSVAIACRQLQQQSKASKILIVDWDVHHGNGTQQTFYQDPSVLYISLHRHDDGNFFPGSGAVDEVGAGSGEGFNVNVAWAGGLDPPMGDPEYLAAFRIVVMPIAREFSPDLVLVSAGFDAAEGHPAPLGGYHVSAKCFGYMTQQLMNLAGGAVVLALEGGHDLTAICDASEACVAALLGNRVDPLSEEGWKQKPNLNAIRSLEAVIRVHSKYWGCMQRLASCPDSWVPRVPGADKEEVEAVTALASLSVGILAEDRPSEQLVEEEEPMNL

Chain of Human HDAC5 (Q9UQL6 other isoform, or with tags, fused parts or gaps): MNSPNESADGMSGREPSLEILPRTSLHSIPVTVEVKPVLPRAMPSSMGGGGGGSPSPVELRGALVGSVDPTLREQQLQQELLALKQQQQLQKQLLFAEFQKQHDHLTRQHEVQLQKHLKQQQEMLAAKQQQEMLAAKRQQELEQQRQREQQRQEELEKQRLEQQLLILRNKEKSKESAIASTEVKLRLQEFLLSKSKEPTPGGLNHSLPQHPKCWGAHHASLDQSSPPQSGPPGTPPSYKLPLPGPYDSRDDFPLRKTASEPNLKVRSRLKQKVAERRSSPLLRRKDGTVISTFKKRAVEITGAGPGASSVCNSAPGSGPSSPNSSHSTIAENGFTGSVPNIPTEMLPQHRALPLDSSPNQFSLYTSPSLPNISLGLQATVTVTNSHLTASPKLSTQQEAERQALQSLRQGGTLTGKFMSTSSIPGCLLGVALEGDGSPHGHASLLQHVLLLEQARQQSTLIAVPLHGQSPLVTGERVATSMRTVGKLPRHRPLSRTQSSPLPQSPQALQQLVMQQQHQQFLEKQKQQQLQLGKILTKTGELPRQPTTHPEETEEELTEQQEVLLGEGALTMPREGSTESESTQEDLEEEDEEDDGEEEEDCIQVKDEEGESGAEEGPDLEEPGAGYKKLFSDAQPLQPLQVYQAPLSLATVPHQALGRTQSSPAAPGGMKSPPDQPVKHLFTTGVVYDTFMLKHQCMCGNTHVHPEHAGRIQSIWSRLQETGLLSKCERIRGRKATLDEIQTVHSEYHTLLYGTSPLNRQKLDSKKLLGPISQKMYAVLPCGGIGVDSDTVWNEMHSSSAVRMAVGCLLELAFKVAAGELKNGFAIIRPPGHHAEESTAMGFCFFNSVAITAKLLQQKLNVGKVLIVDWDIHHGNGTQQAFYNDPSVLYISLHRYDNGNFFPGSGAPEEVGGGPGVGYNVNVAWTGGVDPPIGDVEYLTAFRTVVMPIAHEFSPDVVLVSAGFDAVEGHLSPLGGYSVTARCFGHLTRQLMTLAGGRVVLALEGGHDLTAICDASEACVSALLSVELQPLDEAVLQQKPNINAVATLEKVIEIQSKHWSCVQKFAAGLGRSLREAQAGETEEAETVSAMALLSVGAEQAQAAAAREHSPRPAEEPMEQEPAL
Chain of Human HDAC10 (Q969S8 1-631): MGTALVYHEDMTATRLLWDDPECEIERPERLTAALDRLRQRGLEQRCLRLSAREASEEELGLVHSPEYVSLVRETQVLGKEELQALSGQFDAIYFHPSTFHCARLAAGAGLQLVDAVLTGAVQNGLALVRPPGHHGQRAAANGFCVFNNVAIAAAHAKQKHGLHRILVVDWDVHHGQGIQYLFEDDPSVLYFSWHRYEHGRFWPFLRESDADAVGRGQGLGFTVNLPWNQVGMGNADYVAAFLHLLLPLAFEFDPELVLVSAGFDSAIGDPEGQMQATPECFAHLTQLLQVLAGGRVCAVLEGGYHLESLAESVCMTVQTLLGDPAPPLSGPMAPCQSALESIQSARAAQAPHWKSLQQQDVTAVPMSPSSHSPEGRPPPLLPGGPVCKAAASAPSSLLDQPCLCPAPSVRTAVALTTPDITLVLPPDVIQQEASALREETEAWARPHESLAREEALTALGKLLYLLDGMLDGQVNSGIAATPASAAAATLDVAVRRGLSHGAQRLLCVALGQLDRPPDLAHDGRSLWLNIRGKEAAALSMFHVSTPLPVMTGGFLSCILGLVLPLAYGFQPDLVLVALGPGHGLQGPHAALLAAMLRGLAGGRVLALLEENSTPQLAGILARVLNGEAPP
Chain of Human HDAC2 (Q92769 whole entry): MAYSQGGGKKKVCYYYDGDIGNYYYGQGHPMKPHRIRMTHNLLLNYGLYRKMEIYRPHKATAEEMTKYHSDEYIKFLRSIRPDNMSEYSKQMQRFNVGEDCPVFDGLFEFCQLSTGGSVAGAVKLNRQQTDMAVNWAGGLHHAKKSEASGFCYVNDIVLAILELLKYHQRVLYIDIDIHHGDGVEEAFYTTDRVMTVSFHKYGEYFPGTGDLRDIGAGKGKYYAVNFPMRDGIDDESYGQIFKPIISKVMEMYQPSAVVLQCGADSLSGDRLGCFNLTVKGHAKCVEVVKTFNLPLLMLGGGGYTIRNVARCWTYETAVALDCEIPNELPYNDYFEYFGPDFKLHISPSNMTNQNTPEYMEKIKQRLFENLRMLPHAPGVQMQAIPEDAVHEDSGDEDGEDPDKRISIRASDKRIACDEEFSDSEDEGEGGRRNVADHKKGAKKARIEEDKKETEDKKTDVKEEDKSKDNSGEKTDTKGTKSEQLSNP
Chain of Human HDAC4 (P56524 627-1084 limits assumed): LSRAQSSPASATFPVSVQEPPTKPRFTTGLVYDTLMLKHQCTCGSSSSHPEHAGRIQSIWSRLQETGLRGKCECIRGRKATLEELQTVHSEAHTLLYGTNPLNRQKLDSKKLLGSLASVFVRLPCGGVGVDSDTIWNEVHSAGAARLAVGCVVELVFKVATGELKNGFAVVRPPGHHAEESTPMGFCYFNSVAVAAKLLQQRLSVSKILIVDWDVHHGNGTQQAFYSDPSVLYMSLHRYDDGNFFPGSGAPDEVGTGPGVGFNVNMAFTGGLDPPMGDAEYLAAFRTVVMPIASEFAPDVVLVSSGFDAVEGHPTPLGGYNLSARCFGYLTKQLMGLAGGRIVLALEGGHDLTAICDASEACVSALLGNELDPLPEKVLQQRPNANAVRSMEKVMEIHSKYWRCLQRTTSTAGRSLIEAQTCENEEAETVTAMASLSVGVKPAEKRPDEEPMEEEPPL
Chain of Human HDAC6 (Q9UBN7 whole entry): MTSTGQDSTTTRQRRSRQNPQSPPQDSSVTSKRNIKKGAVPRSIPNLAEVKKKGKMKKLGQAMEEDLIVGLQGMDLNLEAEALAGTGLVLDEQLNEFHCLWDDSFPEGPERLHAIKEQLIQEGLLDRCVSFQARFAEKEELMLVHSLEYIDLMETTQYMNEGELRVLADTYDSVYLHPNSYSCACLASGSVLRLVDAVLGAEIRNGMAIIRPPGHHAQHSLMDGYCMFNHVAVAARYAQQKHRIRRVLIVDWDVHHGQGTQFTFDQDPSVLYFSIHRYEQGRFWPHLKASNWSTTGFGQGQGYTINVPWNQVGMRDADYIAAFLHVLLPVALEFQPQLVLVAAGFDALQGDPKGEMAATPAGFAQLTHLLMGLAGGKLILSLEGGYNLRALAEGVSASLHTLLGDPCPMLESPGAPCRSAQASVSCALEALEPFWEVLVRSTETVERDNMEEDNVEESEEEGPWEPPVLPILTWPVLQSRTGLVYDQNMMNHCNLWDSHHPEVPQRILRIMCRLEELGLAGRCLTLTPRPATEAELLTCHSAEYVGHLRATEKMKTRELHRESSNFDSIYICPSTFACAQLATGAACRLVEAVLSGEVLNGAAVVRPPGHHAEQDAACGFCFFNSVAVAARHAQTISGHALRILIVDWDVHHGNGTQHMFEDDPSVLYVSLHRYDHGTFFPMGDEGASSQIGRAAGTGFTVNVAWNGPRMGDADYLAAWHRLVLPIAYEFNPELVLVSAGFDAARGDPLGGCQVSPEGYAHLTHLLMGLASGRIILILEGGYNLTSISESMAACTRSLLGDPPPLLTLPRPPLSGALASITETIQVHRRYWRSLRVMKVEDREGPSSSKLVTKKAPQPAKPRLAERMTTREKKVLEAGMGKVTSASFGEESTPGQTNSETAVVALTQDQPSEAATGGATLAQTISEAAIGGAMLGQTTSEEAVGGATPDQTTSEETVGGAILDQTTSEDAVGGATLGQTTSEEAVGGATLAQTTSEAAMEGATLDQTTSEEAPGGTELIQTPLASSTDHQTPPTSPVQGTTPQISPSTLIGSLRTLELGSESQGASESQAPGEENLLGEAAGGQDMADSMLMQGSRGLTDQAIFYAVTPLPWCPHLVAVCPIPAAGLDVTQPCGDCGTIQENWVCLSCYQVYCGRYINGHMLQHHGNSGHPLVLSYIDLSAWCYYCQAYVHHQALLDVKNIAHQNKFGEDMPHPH
Chain of Human HDAC9 (Q9UKV0 other isoform, or with tags, fused parts or gaps): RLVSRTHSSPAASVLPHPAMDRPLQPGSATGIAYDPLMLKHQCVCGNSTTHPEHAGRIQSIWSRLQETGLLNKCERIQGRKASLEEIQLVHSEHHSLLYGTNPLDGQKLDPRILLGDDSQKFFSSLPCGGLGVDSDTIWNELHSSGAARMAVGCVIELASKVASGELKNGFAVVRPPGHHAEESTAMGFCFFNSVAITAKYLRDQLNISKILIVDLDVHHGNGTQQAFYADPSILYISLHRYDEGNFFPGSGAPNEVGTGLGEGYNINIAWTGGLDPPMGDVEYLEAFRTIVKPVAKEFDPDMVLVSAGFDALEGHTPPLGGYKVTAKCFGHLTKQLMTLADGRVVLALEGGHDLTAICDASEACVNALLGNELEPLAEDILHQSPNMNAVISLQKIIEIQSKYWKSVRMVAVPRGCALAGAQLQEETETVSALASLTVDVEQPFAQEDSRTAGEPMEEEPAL

N.N.[Cl][Pt][Cl] [Cisplatin, reference compound]
IC50 (SK-MEL-5): 2.87 µM | IC50 (SW620): 84.3 µM | IC50 (NCI-N87): 8.24 µM | IC50 (HT-29): 14.9 µM | IC50 (DU145): 4.01 µM | IC50 (SK-BR-3): 1.74 µM | IC50 (NCI-H226): 9.5 µM | IC50 (PC-3): 11.5 µM | IC50 (K562): 13.2 µM | IC50 (MDA-MB-231): 99.8 µM | IC50 (NCI-H460): 6.93 µM | IC50 (A375): 6.55 µM | IC50 (Bx-PC-3): 6.12 µM | IC50 (SK-MES-1): 5.12 µM | IC50 (LNCaP): 8.92 µM | IC50 (SK-OV-3): 4.42 µM | IC50 (Hep3B): 3.96 µM | IC50 (DLD-1): 18.3 µM | IC50 (CNE2): 11.8 µM | IC50 (SW480): 10.8 µM | IC50 (RPMI-8226): 1.06 µM | IC50 (BGC823): 1.29 µM | IC50 (KB): 3.97 µM | IC50 (PANC-1): 24.8 µM | IC50 (Calu-6): 1.61 µM | IC50 (OVCAR3): 11.7 µM | IC50 (A549): 28.4 µM | IC50 (786-O): 4.32 µM | IC50 (MCG803): 11.4 µM | IC50 (LoVo): 4.65 µM | IC50 (U87MG): 7.61 µM | IC50 (MCF-7): 7.75 µM

Nc1ccccc1NC(=O)c1ccc(CNC(=O)c2[nH]c(-c3ccc(O)cc3)cc2-c2ccoc2)cc1 [Example 37, N-(4-{[(2-aminophenyl)amino)carbonyl]benzyl}-3-(3-furyl)-5-(4-hydroxyphenyl)-1H-pyrrole-2-carboxamide]
IC50 (Human HDAC11): 5660 nM | IC50 (Human HDAC6): 2890 nM | IC50 (Human HDAC10): 8550 nM | IC50 (Human HDAC8): > 5000 nM | IC50 (Human HDAC5): 8640 nM | IC50 (Human HDAC9): > 5000 nM | IC50 [1]: 1080 nM | IC50 (Human HDAC3/NcoR2): 5830 nM | IC50 (Human HDAC1): 332 nM | IC50 (Human HDAC4): > 5000 nM | IC50 (Human HDAC2): 1840 nM | IC50 (Human HDAC7): > 5000 nM

From US8685992B2, “Histone deacetylase inhibitors based simultaneously on trisubstituted 1H-pyrroles and aromatic and heteroaromatic spacers” (Universidad del País Vasco, priority 2009, dated 2014)
